Source: patent US10471073B2, “Methods of reducing mammographic breast density and/or breast cancer risk” (Havah Therapeutics Pty Ltd., priority 2016, dated 2019)

Tests used:
[1] = test system: prostate specific antigen (PSA); assay: IHC of high MBD breast tissue explants with columnar cell change: PSA; assay type: cell-based, human; settings: for PSA, percentage of cell staining: 24 hours, E 5 nM, T 10 nM, G 100 nM, A 25 ng/L [sic]; for effect on PSA levels: tissue samples of both patients
Description: (§1) The samples are transported on ice for Prostate-specific antigen (PSA) determination. […] PSA is detectable in greater than 90% of the nipple fluid aspirations of normal women. […] This area was removed and transported on ice to the laboratory for explant culture. […] A representative piece of each tissue sample was immediately fixed in 4% formalin in phosphate-buffered saline (PBS) overnight at 4° C., followed by dehydration using an automatic tissue processor (Sakura Tissue-Tek VIP, USA) and paraffin wax embedding. A haematoxylin and eosin (H&E) stained section was used to assess tissue pathology. Additional consecutive sections were subjected to antigen retrieval to assess androgen receptor levels by immunohistochemistry (IHC). The remaining fresh tissue was cut into small (˜3×3×1 mm) pieces, and placed as triplicates on 1 cm^3 gelatin sponges (Spongostan; Johnson & Johnson, Skipton, UK) that were pre-soaked and then half submerged in treatment media containing 10% by volume dextran-coated charcoal stripped fetal calf serum (DCC-FCS) (SAFC biosciences, Kansas, USA) in 24-well tissue culture plates (BD Biosciences, NJ, USA). The tissues samples of both patients were cultured for 24 hours in a vehicle of 0.1% by volume of ethanol and subjected to the treatments set forth in Table 17.
(§2) Following 24 hours culturing in a 5% by volume CO2 enriched atmosphere at 37° C., the treated tissues samples were processed for IHC analyses as indicated below. Established IHC protocols were used to determine hormone receptor androgen receptor status in the 4 tissue samples prior to culture. Following microwave antigen retrieval in […] (pH6.5) tissue sections were incubated at 4° C. overnight with primary antibody for androgen receptor, estrogen receptor and PSA. Negative controls were generated by replacement of the primary antibodies with PBS. Tissues were dehydrated in ethanol and xylene and mounted with DPX (VWR International Ltd, England, UK). Following staining, digital images of stained sections were generated with a NanoZoomer scanner (Hamamatsu, Japan) to enable analyses of % positivity in untreated tissues, using Visual Image Analysis software (Video Pro, South Australia). A pathologist undertook histological evaluation with 25 years experience in breast pathology.

estrogen receptor (ER) = assay: IHC of high MBD breast tissue explants with columnar cell change: estrogen receptor; assay type: cell-based, human; settings: 24 hours, E 5 nM, T 10 nM, G 100 nM, A 25 ng/L [sic]
Description: as §1, §2

androgen receptor (AR) = assay: IHC of high MBD breast tissue explants with columnar cell change: androgen receptor; assay type: cell-based, human; settings: for AR, percentage of cell staining: 24 hours, E 5 nM, T 10 nM, G 100 nM, A 25 ng/L [sic]; for effect on AR levels: tissue samples of both patients
Description: as §1, §2

[2] = cited from earlier work
pre-menopausal person = settings: prior art; cited from earlier work
person with macromastia = assay: Macromastia: breast volume by water displacement; assay type: in vivo, human; settings: tamoxifen and oral contraceptive therapy before the pellet
Description: The treatment consisted of testosterone 100 mg and anastrazole 3 mg compounded into a 4.5 mm pellet. The pellet was inserted into the subcutaneous fat of the lower abdominal wall.
Prior to treatment (Pre-treatment) the right and left breasts were separately placed in a calibrated bucket and the volume of displacement for each breast was measured. This was accomplished by submerging each breast until the breast was fully submerged but the water was not touching the chest wall. After one month of treatment the volume measurements were repeated using the same water displacement methodology. Fluid displacements were measured in mls.

Compound: CC(C)(C#N)c1cc(Cn2cncn2)cc(C(C)(C)C#N)c1 [Anastrozole, 2,2′-[5-(1H-1,2,4-triazol-1-ylmethyl)-1,3-phenylene]bis(2-methylpropanenitrile)]
- PSA, percentage of cell staining ([1]; Patient 1 explant, vehicle 20%): 35%
- PSA, percentage of cell staining ([1]; Patient 2 explant, vehicle […]%): 25%
- effect on PSA levels [1]: mild stimulatory effect

Compound: C[C@]12CC[C@@H]3c4ccc(O)cc4CC[C@H]3[C@@H]1CC[C@@H]2O [Estradiol, estradiol]
- PSA, percentage of cell staining ([1]; Patient 1 explant, vehicle 20%): 5%
- PSA, percentage of cell staining ([1]; Patient 2 explant, vehicle […]%): <5%
- ER, percentage of cell staining (estrogen receptor (ER); Patient 1 explant, vehicle 90%): >95%
- ER, percentage of cell staining (estrogen receptor (ER); Patient 2 explant, vehicle 75%): >95%
- AR, percentage of cell staining (androgen receptor (AR); Patient 1 explant, vehicle […]%): 5%
- AR, percentage of cell staining (androgen receptor (AR); Patient 2 explant, vehicle 10%): <5%

Compound: C[C@](O)(COc1ccc(C#N)cc1)C(=O)Nc1ccc(C#N)c(C(F)(F)F)c1 [GTx-024, (2S)-3-(4-cyanophenoxy)-N-[4-cyano-3-(trifluoromethyl)phenyl]-2-hydroxy-2-methylpropanamide]
- PSA, percentage of cell staining ([1]; Patient 1 explant, vehicle 20%): 50%
- PSA, percentage of cell staining ([1]; Patient 2 explant, vehicle […]%): 55%
- effect on PSA levels [1]: increased
- ER, percentage of cell staining (estrogen receptor (ER); Patient 1 explant, vehicle 90%): 45%
- ER, percentage of cell staining (estrogen receptor (ER); Patient 2 explant, vehicle 75%): 25%
- AR, percentage of cell staining (androgen receptor (AR); Patient 1 explant, vehicle […]%): 45%
- AR, percentage of cell staining (androgen receptor (AR); Patient 2 explant, vehicle 10%): 55%
- effect on AR levels (androgen receptor (AR)): increased

Compound: C[C@]12CC[C@H]3[C@@H](CCC4=CC(=O)CC[C@@]43C)[C@@H]1CC[C@@H]2O [Testosterone, testosterone]
- fraction broken down in the liver as it is absorbed from the gut ([2]; oral delivery): 80-90%
- fraction broken down in the intestines by aromatase and other metabolic pathways ([2]; oral): approximately 85%
- PSA, percentage of cell staining ([1]; Patient 1 explant, vehicle 20%): 65%
- PSA, percentage of cell staining ([1]; Patient 2 explant, vehicle […]%): 45%
- effect on PSA levels [1]: increased
- ER, percentage of cell staining (estrogen receptor (ER); Patient 1 explant, vehicle 90%): 50%
- ER, percentage of cell staining (estrogen receptor (ER); Patient 2 explant, vehicle 75%): 45%
- AR, percentage of cell staining (androgen receptor (AR); Patient 1 explant, vehicle […]%): 35%
- AR, percentage of cell staining (androgen receptor (AR); Patient 2 explant, vehicle 10%): 25%
- effect on AR levels (androgen receptor (AR)): increased

Compound: CC/C(=C(\c1ccccc1)c1ccc(OCCN(C)C)cc1)c1ccccc1 [tamoxifen]
- mammographic breast density (pre-menopausal person): reduce
- breast growth in macromastia (person with macromastia): failed to cease the breast growth
